Several values for one entry are separate records, joined by “and”; a condition that tells them apart may be missing. Equal entries are not always repeated.
Columns and labels:
[1] = Pharmacokinetic incorporation of the hydrophilic collyrium in rabbit cornea, retina and plasma (CoQ10 concentration); format: in vivo; conditions: for RETINA Q10-treated, Average / RETINA Q10-treated: retina of treated eye
Protocol: Assessment of the pharmacokinetic activity of incorporation of the hydrophilic collyrium in rabbit cornea, retina and plasma.
a) The hydrophilic collyrium was assayed on a first lot of three rabbits by instilling Coenzyme Q10 in the right eye and an equivalent excipient free from Q10 and vitamin E TPQS in the contralateral (basal) eye. At + 15 min from the collyrium instillation, CoQ10 concentration in the treated eye and in the other (basal) eye was analysed. The analysis was performed on the retina, the cornea and the plasma of the two eyes.
b) .A second lot of six rabbits was subjected to an analogous assay in which the waiting time was prolonged up to 30 min.

[2] = cited from earlier work
[3] = system: superoxide anion generated by human PMNs (polymorphonucleates); conditions: human PMNs suitably stimulated; Ferrocytochrome C method
[4] = treated minus basal, 15 min, average of 3 rabbits
[5] = treated vs basal, 15 min, average of 3 rabbits

COC1=C(OC)C(=O)C(C/C=C(\C)CC/C=C(\C)CC/C=C(\C)CC/C=C(\C)CC/C=C(\C)CC/C=C(\C)CC/C=C(\C)CC/C=C(\C)CC/C=C(\C)CCC=C(C)C)=C(C)C1=O [Formulation Q10, Ubiquinone Q10]
incorporation in the cornea ([1]; at both times considered (15 min and 30 min)): scarce | CORNEA Q10-treated, Average ([1]; cornea of treated eye, 15 min, average of 3 rabbits): 1004 pmoles/g | CORNEA Q10-treated ([1]; cornea of treated eye, 15 min, individual rabbits N. 15-17): 887 pmoles/g and 955 pmoles/g and 1170 pmoles/g | CORNEA Difference, Average ([1]; cornea, treated minus basal, 15 min, average of 3 rabbits): 74 pmol/g | CORNEA Difference ([1]; cornea, treated minus basal, 15 min, individual rabbits): -34 pmol/g and 377 pmol/g and -150 pmol/g | CORNEA %Increase, Average ([1]; cornea, treated vs basal, 15 min, average of 3 rabbits): 7% | CORNEA %Increase ([1]; cornea, treated vs basal, 15 min, individual rabbits): -3% and 65% and -11% | CORNEA %Increase, Average ([1]; cornea, treated vs basal, 30 min, average of 6 rabbits): 4% | CORNEA %Increase ([1]; cornea, treated vs basal, 30 min, individual rabbits): -17% and 16% (2×) and 24% and -7% and -16% | PLASMA Q10-treated, Average ([1]; 15 min, average of 3 rabbits): 74 pmoles/g | PLASMA Q10-treated ([1]; 15 min, individual rabbits N. 15-17): 62 pmoles/g and 83 pmoles/g and 78 pmoles/g | PLASMA Q10-treated, Average ([1]; 30 min, average of 6 rabbits): 83 pmoles/g | PLASMA Q10-treated ([1]; 30 min, individual rabbits N. 18-23): 79 pmoles/g and 105 pmoles/g and 106 pmoles/g and 53 pmoles/g and 81 pmoles/g and 73 pmoles/g | PLASMA Difference, Average [1, 4]: 10 pmol/g | PLASMA Difference ([1]; treated minus basal, 15 min, individual rabbits): 8 pmol/g and 6 pmol/g and 17 pmol/g | PLASMA Difference, Average ([1]; treated minus basal, 30 min, average of 6 rabbits): 13 pmol/g | PLASMA Difference ([1]; treated minus basal, 30 min, individual rabbits): 14 pmoles/g (2×) and 7 pmoles/g and 23 pmoles/g and 10 pmoles/g and 8 pmoles/g | PLASMA %Increase, Average [1, 5]: 16% | PLASMA %Increase ([1]; treated vs basal, 15 min, individual rabbits): 15% and 8% and 28% | PLASMA %Increase, Average ([1]; treated vs basal, 30 min, average of 6 rabbits): 18% | PLASMA %Increase ([1]; treated vs basal, 30 min, individual rabbits): 21% (2×) and 7% and 28% and 23% and 12% | RETINA Q10-treated, Average ([1]; 15 min, average of 3 rabbits): 754 pmoles/g | RETINA Q10-treated ([1]; 15 min after instillation, individual rabbits N. 15-17): 787 pmoles/g and 632 pmoles/g and 843 pmoles/g | RETINA Q10-treated, Average ([1]; second lot (30 min; head prints 15 min), average of 6 rabbits): 1084.3 pmoles/g | RETINA Q10-treated ([1]; second lot (waiting time 30 min; head prints 15 min), individual rabbits N. 18-23): 1006 pmoles/g and 1394 pmoles/g and 1037 pmoles/g and 725 pmoles/g and 975 pmoles/g and 1369 pmoles/g | RETINA Difference ([1]; treated minus basal (contralateral) eye, 15 min, individual rabbits): -82 pmol/g and 14 pmol/g and 83 pmol/g | RETINA Difference, Average [1, 4]: 5 pmol/g | RETINA Difference, Average ([1]; treated minus basal, second lot (30 min; head prints 15 min), average of 6 rabbits): 138.8 pmol/g | RETINA Difference ([1]; treated minus basal, second lot (30 min; head prints 15 min), individual rabbits): 177 pmol/g and 57 pmol/g and 106 pmol/g and 74 pmol/g and 211 pmol/g and 208 pmol/g | RETINA %Increase, Average ([1]; treated vs basal (contralateral eye), second lot (30 min; head prints 15 min), average of 6 rabbits): 15% | RETINA % Increase ([1]; treated vs basal eye, 15 min, individual rabbits): -9% and 2% and 11% | RETINA %Increase, Average [1, 5]: 1% | RETINA % Increase ([1]; treated vs basal, second lot (30 min; head prints 15 min), individual rabbits): 21% and 4% and 11% (2×) and 28% and 18% | solubility in water [2]: totally insoluble in water

d-Alpha-tocopheryl polyethylene glycol 1000-succinate [vitamin E TPGS]
scavenging action with regards to the superoxide anion [3]: scavenging action
